Measurements published in PMC8429728, “TNK1 is a ubiquitin-binding and 14-3-3-regulated kinase that can be targeted to block tumor growth” (Nature Communications, 2021).
Where two headings read alike, the source gives them in different places.

Assays:
Assay in all cases: biochemical
Design in all cases: Reaction Biology 371-kinase panel at Km ATP, per cent enzyme activity relative to DMSO, single dose in duplicate
CAMK1g = CAMK1g (Homo sapiens, UniProt Q96NX5); conditions: duplicate measurements, Km ATP
Summary of the method: (§1)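 In vitro selectivity panel: 371 kinases, inhibitor at 300 nM; % activity vs DMSO; IC50 by variable-slope sigmoidal fit, bottom = 0.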

CDK5/P25 = biological target: T1, CDK5/P25 (Homo sapiens, UniProt Q00535); conditions: duplicate measurements, Km ATP
T1 construct: p25
Summary of the method: as §1

DDR2 = DDR2 (Homo sapiens, UniProt Q16832); conditions: duplicate measurements, Km ATP
Summary of the method: as §1

EPHA5 = EPHA5 (Homo sapiens, UniProt P54756); conditions: duplicate measurements, Km ATP
Summary of the method: as §1

FGFR1 = FGFR1 (Homo sapiens, UniProt P11362); conditions: duplicate measurements, Km ATP
Summary of the method: as §1

FGFR4 = FGFR4 (Homo sapiens, UniProt P22455); conditions: duplicate measurements, Km ATP
Summary of the method: as §1

FMS = biological target: T2, FMS (Homo sapiens, UniProt P07333); conditions: duplicate measurements, Km ATP
T2 construct: gene CSF1R
Summary of the method: as §1

GRK1 = GRK1 (Homo sapiens, UniProt Q15835); conditions: duplicate measurements, Km ATP
Summary of the method: as §1

GRK5 = GRK5 (Homo sapiens, UniProt P34947); conditions: duplicate measurements, Km ATP
Summary of the method: as §1

JNK1 = biological target: T3, JNK1 (Homo sapiens, UniProt P45983); conditions: duplicate measurements, Km ATP; read-out: % Enzyme Activity (relative to DMSO controls) / TP-0005801 (0.3µM) / Data 1
T3 construct: gene MAPK8
Summary of the method: as §1

MLCK/MYLK = MLCK/MYLK (Homo sapiens, UniProt Q15746); conditions: duplicate measurements, Km ATP
Summary of the method: as §1

MLCK2/MYLK2 = MLCK2/MYLK2 (Homo sapiens, UniProt Q9H1R3); conditions: duplicate measurements, Km ATP
Summary of the method: as §1

MLK1/MAP3K9 = MLK1/MAP3K9 (Homo sapiens, UniProt P80192); conditions: duplicate measurements, Km ATP
Summary of the method: as §1

MSK2/RPS6KA4 = MSK2/RPS6KA4 (Homo sapiens, UniProt O75676); conditions: duplicate measurements, Km ATP
Summary of the method: as §1

NEK11 = NEK11 (Homo sapiens, UniProt Q8NG66); conditions: duplicate measurements, Km ATP
Summary of the method: as §1

PKCmu/PRKD1 = PKCmu/PRKD1 (Homo sapiens, UniProt Q15139); conditions: duplicate measurements, Km ATP
Summary of the method: as §1

PLK4/SAK = PLK4/SAK (Homo sapiens, UniProt O00444); conditions: duplicate measurements, Km ATP
Summary of the method: as §1

RON/MST1R = RON/MST1R (Homo sapiens, UniProt Q04912); conditions: duplicate measurements, Km ATP
Summary of the method: as §1

TRKA = biological target: T4, TRKA (Homo sapiens, UniProt P04629); conditions: duplicate measurements, Km ATP
T4 construct: gene NTRK1
Summary of the method: as §1

c-Src = c-Src (Homo sapiens, UniProt P12931); conditions: duplicate measurements, Km ATP
Summary of the method: as §1

[1] = read-out: % Enzyme Activity (relative to DMSO controls) / TP-0005801 (0.3µM) / Data 1
[2] = read-out: % Enzyme Activity (relative to DMSO controls) / TP-0005801 (0.3µM) / Data 2

PLK4/SAK, sequence (O00444 whole entry): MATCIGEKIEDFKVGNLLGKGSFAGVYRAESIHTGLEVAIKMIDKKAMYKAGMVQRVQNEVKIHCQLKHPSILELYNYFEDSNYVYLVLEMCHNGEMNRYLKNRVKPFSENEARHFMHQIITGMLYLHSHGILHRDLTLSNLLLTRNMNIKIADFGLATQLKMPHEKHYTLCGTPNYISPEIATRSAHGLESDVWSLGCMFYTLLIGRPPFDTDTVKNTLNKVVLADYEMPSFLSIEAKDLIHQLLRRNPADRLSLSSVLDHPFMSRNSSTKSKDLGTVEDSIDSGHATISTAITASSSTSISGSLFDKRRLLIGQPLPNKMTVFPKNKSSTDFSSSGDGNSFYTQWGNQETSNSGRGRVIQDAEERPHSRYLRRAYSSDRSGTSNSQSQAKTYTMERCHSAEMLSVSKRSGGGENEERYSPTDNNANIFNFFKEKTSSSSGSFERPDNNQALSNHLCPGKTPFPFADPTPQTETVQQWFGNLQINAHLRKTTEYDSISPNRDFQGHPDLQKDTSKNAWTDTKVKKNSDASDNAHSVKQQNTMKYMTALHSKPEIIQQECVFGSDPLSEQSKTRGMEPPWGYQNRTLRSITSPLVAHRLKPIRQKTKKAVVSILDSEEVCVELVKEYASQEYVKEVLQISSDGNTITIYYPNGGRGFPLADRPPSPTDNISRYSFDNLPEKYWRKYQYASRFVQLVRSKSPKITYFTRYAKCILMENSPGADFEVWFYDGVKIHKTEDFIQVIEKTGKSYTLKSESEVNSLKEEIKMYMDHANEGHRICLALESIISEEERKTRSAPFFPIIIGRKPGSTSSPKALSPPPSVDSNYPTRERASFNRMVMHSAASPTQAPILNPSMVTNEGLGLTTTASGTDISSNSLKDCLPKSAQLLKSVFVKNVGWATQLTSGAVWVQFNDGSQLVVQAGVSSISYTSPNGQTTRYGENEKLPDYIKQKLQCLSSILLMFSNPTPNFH
c-Src, sequence (P12931 whole entry): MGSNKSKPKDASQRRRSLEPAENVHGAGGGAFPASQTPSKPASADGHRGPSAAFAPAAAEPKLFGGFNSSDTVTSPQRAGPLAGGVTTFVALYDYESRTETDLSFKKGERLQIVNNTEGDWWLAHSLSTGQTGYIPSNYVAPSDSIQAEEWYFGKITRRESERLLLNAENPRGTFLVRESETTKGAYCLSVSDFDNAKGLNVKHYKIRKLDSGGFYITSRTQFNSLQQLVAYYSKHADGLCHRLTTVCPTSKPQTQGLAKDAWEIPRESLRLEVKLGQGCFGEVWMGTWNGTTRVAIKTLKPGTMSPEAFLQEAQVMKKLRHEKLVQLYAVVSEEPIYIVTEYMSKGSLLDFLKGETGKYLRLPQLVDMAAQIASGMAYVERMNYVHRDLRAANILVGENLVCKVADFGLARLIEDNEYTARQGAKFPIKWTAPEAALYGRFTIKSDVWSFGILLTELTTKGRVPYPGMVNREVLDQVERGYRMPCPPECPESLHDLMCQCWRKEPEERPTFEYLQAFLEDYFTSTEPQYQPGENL
T1 sequence (Q00535 whole entry): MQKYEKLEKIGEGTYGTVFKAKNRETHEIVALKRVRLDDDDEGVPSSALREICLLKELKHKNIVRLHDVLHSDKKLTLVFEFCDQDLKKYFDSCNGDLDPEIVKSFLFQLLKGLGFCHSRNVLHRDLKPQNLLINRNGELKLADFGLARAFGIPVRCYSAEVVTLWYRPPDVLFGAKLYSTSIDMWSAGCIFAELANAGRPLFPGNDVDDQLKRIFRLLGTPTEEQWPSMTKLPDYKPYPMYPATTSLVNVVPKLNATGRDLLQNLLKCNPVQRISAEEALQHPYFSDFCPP
T1 sequence (Q15078 whole entry partner): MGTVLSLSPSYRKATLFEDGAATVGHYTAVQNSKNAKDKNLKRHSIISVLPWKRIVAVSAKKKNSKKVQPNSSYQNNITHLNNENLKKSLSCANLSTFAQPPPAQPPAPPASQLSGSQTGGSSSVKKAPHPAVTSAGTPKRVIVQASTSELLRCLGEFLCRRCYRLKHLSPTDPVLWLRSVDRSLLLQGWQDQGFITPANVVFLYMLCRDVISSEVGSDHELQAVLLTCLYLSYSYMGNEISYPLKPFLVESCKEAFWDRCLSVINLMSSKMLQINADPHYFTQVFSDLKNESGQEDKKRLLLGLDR
EPHA5, sequence (P54756 whole entry): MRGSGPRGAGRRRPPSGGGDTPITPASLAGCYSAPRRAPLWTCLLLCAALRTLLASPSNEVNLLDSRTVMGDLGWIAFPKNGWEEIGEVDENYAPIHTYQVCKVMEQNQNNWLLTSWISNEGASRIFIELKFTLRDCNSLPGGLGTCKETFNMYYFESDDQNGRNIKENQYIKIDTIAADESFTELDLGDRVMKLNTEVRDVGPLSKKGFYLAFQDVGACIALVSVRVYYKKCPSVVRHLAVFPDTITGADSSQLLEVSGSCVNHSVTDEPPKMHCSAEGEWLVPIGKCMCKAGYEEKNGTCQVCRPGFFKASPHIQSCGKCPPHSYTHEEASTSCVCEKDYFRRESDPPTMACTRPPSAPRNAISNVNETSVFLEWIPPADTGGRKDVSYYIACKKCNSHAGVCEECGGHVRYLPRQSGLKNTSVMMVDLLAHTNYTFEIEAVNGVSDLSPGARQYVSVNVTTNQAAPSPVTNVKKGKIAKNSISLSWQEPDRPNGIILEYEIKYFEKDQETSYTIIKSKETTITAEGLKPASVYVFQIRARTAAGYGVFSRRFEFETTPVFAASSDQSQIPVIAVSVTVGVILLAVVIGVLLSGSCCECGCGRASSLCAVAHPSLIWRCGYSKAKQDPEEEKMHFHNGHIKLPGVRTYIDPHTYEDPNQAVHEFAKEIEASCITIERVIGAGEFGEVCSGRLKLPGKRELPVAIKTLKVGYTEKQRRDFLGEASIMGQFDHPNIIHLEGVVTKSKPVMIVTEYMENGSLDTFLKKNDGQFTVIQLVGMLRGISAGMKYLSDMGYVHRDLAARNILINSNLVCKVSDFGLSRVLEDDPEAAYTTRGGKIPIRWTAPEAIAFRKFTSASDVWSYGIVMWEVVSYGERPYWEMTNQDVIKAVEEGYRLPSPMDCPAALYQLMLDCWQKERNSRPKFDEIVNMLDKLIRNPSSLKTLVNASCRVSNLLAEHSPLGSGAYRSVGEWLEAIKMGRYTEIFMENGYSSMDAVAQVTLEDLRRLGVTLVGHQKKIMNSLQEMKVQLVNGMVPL
FGFR4, sequence (P22455 whole entry): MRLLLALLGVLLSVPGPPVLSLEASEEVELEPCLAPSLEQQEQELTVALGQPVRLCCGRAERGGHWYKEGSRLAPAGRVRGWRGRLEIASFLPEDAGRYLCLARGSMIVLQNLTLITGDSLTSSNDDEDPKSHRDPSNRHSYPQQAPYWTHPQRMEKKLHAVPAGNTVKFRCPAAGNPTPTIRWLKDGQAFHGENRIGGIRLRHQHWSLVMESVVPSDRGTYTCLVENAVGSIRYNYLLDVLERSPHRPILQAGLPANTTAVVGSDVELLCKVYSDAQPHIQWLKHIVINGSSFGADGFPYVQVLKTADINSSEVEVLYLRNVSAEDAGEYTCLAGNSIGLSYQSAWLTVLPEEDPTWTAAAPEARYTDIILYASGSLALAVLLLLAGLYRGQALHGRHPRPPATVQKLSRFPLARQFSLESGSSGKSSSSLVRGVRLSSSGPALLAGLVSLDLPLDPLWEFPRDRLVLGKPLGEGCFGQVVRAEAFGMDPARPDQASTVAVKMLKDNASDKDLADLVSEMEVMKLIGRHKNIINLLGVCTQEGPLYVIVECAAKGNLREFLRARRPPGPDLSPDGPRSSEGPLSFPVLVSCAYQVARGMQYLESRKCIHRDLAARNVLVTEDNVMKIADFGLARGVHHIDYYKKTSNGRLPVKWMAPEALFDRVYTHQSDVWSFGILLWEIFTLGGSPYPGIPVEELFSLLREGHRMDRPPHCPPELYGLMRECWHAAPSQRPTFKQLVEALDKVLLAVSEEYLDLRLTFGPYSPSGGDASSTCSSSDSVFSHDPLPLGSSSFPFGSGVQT
CAMK1g, sequence (Q96NX5 whole entry): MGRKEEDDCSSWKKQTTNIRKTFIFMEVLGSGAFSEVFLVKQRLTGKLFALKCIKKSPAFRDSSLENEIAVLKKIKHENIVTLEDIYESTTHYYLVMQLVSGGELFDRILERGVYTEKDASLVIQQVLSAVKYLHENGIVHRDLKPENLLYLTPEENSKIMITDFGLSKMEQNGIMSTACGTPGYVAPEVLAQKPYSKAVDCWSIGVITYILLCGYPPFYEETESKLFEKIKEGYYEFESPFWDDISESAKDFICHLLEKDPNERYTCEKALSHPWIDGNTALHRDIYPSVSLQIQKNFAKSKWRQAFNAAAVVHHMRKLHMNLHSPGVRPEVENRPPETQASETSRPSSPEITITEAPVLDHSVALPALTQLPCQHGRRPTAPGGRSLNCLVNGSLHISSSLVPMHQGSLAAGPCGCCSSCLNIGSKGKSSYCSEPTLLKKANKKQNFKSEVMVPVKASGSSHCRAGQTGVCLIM
GRK5, sequence (P34947 whole entry): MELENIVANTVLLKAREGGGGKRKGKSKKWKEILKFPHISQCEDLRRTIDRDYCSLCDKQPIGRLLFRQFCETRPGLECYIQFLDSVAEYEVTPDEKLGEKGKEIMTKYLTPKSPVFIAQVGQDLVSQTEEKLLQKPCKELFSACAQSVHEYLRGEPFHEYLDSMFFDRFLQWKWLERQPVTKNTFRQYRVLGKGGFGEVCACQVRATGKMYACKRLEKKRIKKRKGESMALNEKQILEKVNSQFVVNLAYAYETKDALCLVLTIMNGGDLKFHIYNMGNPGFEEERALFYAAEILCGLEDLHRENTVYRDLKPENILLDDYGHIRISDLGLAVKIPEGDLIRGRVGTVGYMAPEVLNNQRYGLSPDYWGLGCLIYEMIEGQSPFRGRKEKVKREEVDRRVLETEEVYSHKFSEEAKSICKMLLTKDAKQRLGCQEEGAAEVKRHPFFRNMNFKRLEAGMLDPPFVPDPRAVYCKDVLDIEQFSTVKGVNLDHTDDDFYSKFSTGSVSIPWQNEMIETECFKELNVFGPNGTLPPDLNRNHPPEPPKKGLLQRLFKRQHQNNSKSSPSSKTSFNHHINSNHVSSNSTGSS

- remaining activity at 0.3 µM (CAMK1g; [1]): 99%
- remaining activity at 0.3 µM (CAMK1g; [2]): 97.4%
- remaining activity at 0.3 µM (CDK5/P25; [1]): 123%
- remaining activity at 0.3 µM (CDK5/P25; [2]): 115%
- remaining activity at 0.3 µM (DDR2; [1]): 77.1%
- remaining activity at 0.3 µM (DDR2; [2]): 75.8%
- remaining activity at 0.3 µM (EPHA5; [1]): 122%
- remaining activity at 0.3 µM (EPHA5; [2]): 117%
- remaining activity at 0.3 µM (FGFR1; [1]): 83.9%
- remaining activity at 0.3 µM (FGFR1; [2]): 83.3%
- remaining activity at 0.3 µM (FGFR4; [1]): 79.9%
- remaining activity at 0.3 µM (FGFR4; [2]): 77.6%
- remaining activity at 0.3 µM (FMS; [1]): 56.3%
- remaining activity at 0.3 µM (FMS; [2]): 55.6%
- remaining activity at 0.3 µM (GRK1; [1]): 118%
- remaining activity at 0.3 µM (GRK1; [2]): 109%
- remaining activity at 0.3 µM (GRK5; [1]): 92%
- remaining activity at 0.3 µM (GRK5; [2]): 89.8%
- remaining activity at 0.3 µM (JNK1): 74.7%
- remaining activity at 0.3 µM (MLCK/MYLK; [1]): 93.8%
- remaining activity at 0.3 µM (MLCK/MYLK; [2]): 90.8%
- remaining activity at 0.3 µM (MLCK2/MYLK2; [1]): 104%
- remaining activity at 0.3 µM (MLCK2/MYLK2; [2]): 100%
- remaining activity at 0.3 µM (MLK1/MAP3K9; [1]): 77.2%
- remaining activity at 0.3 µM (MLK1/MAP3K9; [2]): 76.6%
- remaining activity at 0.3 µM (MSK2/RPS6KA4; [1]): 99%
- remaining activity at 0.3 µM (MSK2/RPS6KA4; [2]): 95%
- remaining activity at 0.3 µM (NEK11; [1]): 99.3%
- remaining activity at 0.3 µM (NEK11; [2]): 94.5%
- remaining activity at 0.3 µM (PKCmu/PRKD1; [1]): 67.7%
- remaining activity at 0.3 µM (PKCmu/PRKD1; [2]): 67.3%
- remaining activity at 0.3 µM (PLK4/SAK; [1]): 74.8%
- remaining activity at 0.3 µM (PLK4/SAK; [2]): 72.8%
- remaining activity at 0.3 µM (RON/MST1R; [1]): 94%
- remaining activity at 0.3 µM (RON/MST1R; [2]): 92.4%
- remaining activity at 0.3 µM (TRKA; [1]): 93.3%
- remaining activity at 0.3 µM (TRKA; [2]): 82.4%
- remaining activity at 0.3 µM (c-Src; [1]): 107%
- remaining activity at 0.3 µM (c-Src; [2]): 106%
SMILES: COc1cc(N2CCN(C)CC2)c(C)cc1Nc1ncc(Br)c(Nc2cccnc2N(C)C)n1 [TP-5801]
